Ends that are not written are not given here.

For test [1], the system named is HaCaT-EPM cells. Nature of the test: Test Example 1: effect on HaCaT-EPM cell growth (WST-1, Cell Counting Kit). In kind it is cell-based, human. More on the design: key to Score (growth recovery of HaCaT-EPM cells): ++: Compared to the case of using the control, significant growth recovery of HaCaT-EPM cells was detected (P≦0.01).; +: Compared to the case of using the control, significant growth recovery of HaCaT-EPM cells was detected (P≦0.05).; −: Significant growth recovery of HaCaT-EPM cells was not detected. As to conditions: peptide 0.001 mass % in DH10 medium. Here is the method:
The cyclic peptide compound obtained in Example 1 was added to purified water to a concentration of […] to obtain a sample. The obtained sample was then added to DH10 medium in such an amount as to achieve a concentration of the cyclic peptide compound obtained in Example 1 of 0.001 mass %. The HaCaT-EPM cells obtained in Production Example 3 were cultured in the obtained medium at 37° C. in a 5 volume % carbon dioxide atmosphere, and the cells were collected over time. After adding 110 μL of a mixture of solution B with reagent A (trade name: “WST-1, ” produced by Dojindo) (the reagent A/Solution B ratio by volume=10/1) provided with a cell counter kit (trade name: “Cell Counting Kit,” produced by Dojindo), the collected cells were incubated for 3 hours. The absorbance of the obtained mixture at 450 nm was measured using a spectrophotometer (trade name: “ARVOtmS X 1420 Multilabel Counter,” produced by Wallac), and the effect of the mixture on the HaCaT-EPM cell growth was investigated. As a control, the above procedure was repeated, except that purified water was used in place of the cyclic peptide compound obtained in Example 1, and the effect on the growth of HaCaT-EPM cells was investigated. […]

Test [2] deals with HaCaT cells. Nature of the test: Test Example 2: lumen formation rate in HaCaT cell clusters in collagen gel with oleic acid. In kind it is cell-based, human. As to conditions: oleic acid 0.05 volume %, peptide 0.0001 mass %, cultured 4 days. Here is the method:
In the following experiment, DH10 was used as a medium of Experimental No. 8. […] HaCaT cells were cultured in the DH10 medium at 37° C. in a 5 volume % carbon dioxide atmosphere. Next, the obtained HaCaT cells were suspended in 350 μL of DH10 medium containing 1000 U/mL DNase I (produced by Sigma Aldrich Co.). While rotating the obtained suspended solids in a 24-well dish (produced by Corning Inc., super-low adhesion surface) at 100 min^−1, gyratory culturing was performed for 24 hours at 37° C. in a 5 volume % carbon dioxide atmosphere to form a smooth, round cell aggregate. The formed cell aggregate was embedded in a high-density collagen gel prepared with a 0.5 mass % collagen solution (type IA) (produced by Koken Co., Ltd.). Next, the cell aggregate after embedding was cultured for 4 days in a 5 volume % carbon dioxide atmosphere at 37° C. in the medium of Experimental Nos. 8, 9, 10, or 11 to form a cell cluster. The morphology of the obtained cell cluster was observed by a phase-contrast microscope. In the cell cluster, the outermost layer cells maintain the undifferentiated state because they are in contact with collagen; however, in general, cells that are located inside the undifferentiated cells of the outermost layer promptly start differentiation, and undergo anoikis. […]

Test [3] deals with HaCaT-EPM cells. Nature of the test: Test Example 3: lumen formation rate in HaCaT-EPM cell clusters in collagen gel. In kind it is cell-based, human. As to conditions: peptide 0.0001 mass %, cultured 4 days. Here is the method:
In the following experiment, DH10 medium was used as the medium of Experimental No. 12. 1 μL of purified water was added to 1 mL of DH10 medium to obtain a medium (Experimental No. 13).
Except for using the HaCaT-EPM cells obtained in Production Example 3 in place of the HaCaT cells in Test Example 2, and the medium of Experimental No. 12, 13, 14, or 15 in place of the medium of Experimental No. 8, 9, 10, or 11 in Test Example 2, the same procedure as in Test Example 2 was performed to calculate a lumen formation rate.

Test [4] relates to differentiated cellular architecture containing HaCaT cells. Nature of the test: Test Example 7: tissue morphology of differentiated cellular architecture containing HaCaT cells treated with oleic acid (parakeratosis). The conditions noted are these: 5 μL 0.5 volume % oleic acid-containing ethanol solution and 5 μL sample with peptide 0.001 mass %; one day. In kind it is cell-based, human. Here is the method:
In the following experiment, DH10 medium was used as a medium of Experimental No. 36. 1 μL of purified water was added to 1 mL of DH10 medium to obtain a sample (Experimental No. 37). Further, the cyclic peptide compound obtained in Example 1 was added to DH10 medium to a concentration of 0.001 mass % to obtain a sample (Experimental No. 38). Furthermore, the linear peptide obtained in Comparative Example 1 was added to DH10 medium to a concentration of 0.001 mass %, to obtain a sample (Experimental No. 39). MRC-5 cells, which are human fetal lung fibroblast cells, were cultured in 10 mL of α-MEM (produced by Gibco Laboratories containing 10 mass % heat inactivated FCS at 37° C. in a 5 volume % carbon dioxide atmosphere for 72 hours. A support (produced by BD Bioscience Co., Ltd.; trade name: cell culture insert) was provided in each well of a 24 well culture plate. In the support, the MRC-5 cells and a collagen gel mixed solution (collagen type I, produced by Nitta Gelatin, Inc.) were mixed. The obtained mixture was formed into a gel to obtain a cell-embedded gel (1.7×10^5/mL). 0.05 ml of a 1 mg/mL fibronectin aqueous solution (produced by BD Biosciences was added to the upper surface of the obtained cell-embedded gel, and the cell-embedded gel was allowed to stand for 1 hour at room temperature. […]

For test [5], the system named is endogenous epimorphin in HaCaT cells. The test is described as follows: Reference Example 1: Western blotting of endogenous epimorphin in HaCaT cells. In kind it is cell-based, human. The conditions noted are these: 0.01 or 0.025 volume % oleic acid in DH10 medium, 3 days. As to the method: HaCaT cells were cultured in a 5 volume % carbon dioxide atmosphere at 37° C. for 3 days in DH10 medium (Experiment No. 1), in DH10 medium containing 0.01 volume % oleic acid (Experiment No. 2), or in DH10 medium containing 0.025 volume % oleic acid (Experiment No. 3). The cultured cells were isolated and the obtained cells were dissolved in a solubilizing reagent (composition: 2 volume % SDS, 10 volume % glycerol, 5 volume % 2-mercaptoethanol, 0.008 volume % bromophenol blue, and 0.65 M tris-HCl buffer (pH about 6.8)) to obtain a cell extract. Western blotting was performed using the obtained cell extract and an anti-epimorphin antibody (produced by R & D Systems), and the relationship between oleic acid and the level of expression of endogenous epimorphin in HaCaT cells was investigated. The relationship between oleic acid and the level of expression of β-actin in HaCaT cells was also investigated in the same manner as above except that an anti-β-actin antibody was used in place of the anti-epimorphin antibody.
In general terms: Immunoblotting shows a protein as a band on a membrane.

In test [6] the test system is secreted epimorphin in HaCaT-TE cell culture supernatant. The test is described as follows: Reference Example 2: secreted epimorphin in HaCaT-TE cell culture supernatant (Western blotting). As to conditions: 0.01 or 0.025 volume % oleic acid in DH10 medium, 3 days. In kind it is cell-based, human. As to the method: (§1) The HaCaT-TE cells obtained in Production Example 1 or the PT67-TE cells obtained in Production Example 2 were cultured in DH10 medium (Experiment No. 4), in DH10 medium containing 0.01 volume % oleic acid (Experiment No. 5), or in DH10 medium containing 0.025 volume % oleic acid (Experiment No. 6) in a 5 volume % carbon dioxide atmosphere at 37° C. for 3 days. The HaCaT-TE cells obtained in Production Example 1 or the PT67-TE cells obtained in Production Example 2 were irradiated with ultraviolet light B (UVB) at a dose of 10 mJ/cm^2, and then cultured in DH10 medium in a 5 volume % carbon dioxide atmosphere at 37° C. for 3 days (Experiment No. 7). The obtained culture was centrifuged (at 1000×g for 30 minutes) to obtain a culture supernatant. Using an anti-T7 tag antibody (produced by Novagen) and protein G Sepharose beads (produced by GE Healthcare), secreted epimorphin was collected from the obtained culture supernatant. The collected secreted epimorphin was subjected to Western blotting. Using an HRP-labeled anti-T7 tag antibody (produced by Novagen), the relationship between oleic acid and the amount of secreted epimorphin in each of the HaCaT-TE cell culture supernatant and the PT67-TE cell culture supernatant was investigated.

Test [7] deals with secreted epimorphin in PT67-TE cell culture supernatant. Nature of the test: Reference Example 2: secreted epimorphin in PT67-TE cell culture supernatant (Western blotting). In kind it is cell-based. The conditions noted are these: 0.01 or 0.025 volume % oleic acid in DH10 medium, 3 days. As to the method: as §1

In the case of SIEQSCD [Comparative Example 1], the “growth of HaCaT-EPM cells” value in test [1] is on record as “grew poorly”. Moreover, the “Score (growth recovery of HaCaT-EPM cells)” value in test [1] (compared to purified water control, absorbance at 450 nm) was “−”. For the same compound, the “lumen formation rate in cell clusters” value in test [2] and in test [3] was “low lumen formation rate” each time. Moreover, in test [4], the “tissue morphology of the cell construct (nucleus; parakeratosis caused by oleic acid)” value was “a nucleus could be observed”.
Turning to `CCCCCCCC/C=C\CCCCCCCC(=O)O` [oleic acid], in test [5], the “level of expression of endogenous epimorphin in HaCaT cells” value was “does not substantially affect”. In addition, the “secreted epimorphin in HaCaT-TE cell culture supernatant” value in test [6] is “induces secretion of epimorphin”. For the same compound, in test [7], the “secreted epimorphin in PT67-TE cell culture supernatant” value is given as “not detected”.
